Experiments:
[1] = tested on: maximal electroshock-induced seizures; assay: Maximal electroshock test (MES), rats; details: Anticonvulsant Screening
U251 cells = assay: Orthotopic mouse model of glioblastoma multiforme, U251 cells; format: in vivo, female athymic nu/nu mice
Experimental: All mice were injected intraperitoneally.
Survival between groups was compared using a Kaplan-Meier analysis and long-rank Mantel-Cox test or The Gehan-Breslow-Wilcoxon test. P values <0.05 defined statistical significance.

[2] = tested on: oxaliplatin-induced peripheral neuropathy; assay: Oxaliplatin induced neuropathic pain study; format: in vivo; details: CBD 15 minutes prior to single oxaliplatin 6 mg/kg
Experimental: A study was designed to test the efficacy of CBD in preventing oxaliplatin- or vincristine-induced peripheral neuropathy. Two doses of CBD and vehicle were tested against each of these first line chemotherapeutic agents. Oxaliplatin was administered once at a dose of 6 mg/kg. CBD was administered 15 minutes prior to the single oxaliplatin injection. Vincristine was administered once daily for 7 days at a dose of 0.1 mg/kg. CBD was administered 15 minutes prior to each vincristine injection. For each treatment group the final sample size was 8 animals.

[3] = Minimal motor impairment (rotorod) toxicity test (TOX), mice; details: in vivo
[4] = Long-term safety study in pediatric patients with refractory epilepsy; details: human, in vivo, oral, 48 week
From the text: This was a long-term, open-label, 48-week study for pediatric subjects aged 1 year to 17 years with refractory epilepsy.
The study included 5 subjects aged 1 to <2 years (infants); 9 subjects aged 2 to <12 years (children), with ≥3 subjects under the age of 6 years; 6 subjects aged 12 to ≤17 years (adolescents), with ≥3 subjects under the age of 16 years.

[5] = tested on: paclitaxel-induced mechanical sensitivity; assay: Paclitaxel induced neuropathic pain study (Von Frey mechanical sensitivity); format: in vivo, mice
clinical = details: human, in vivo, po, 20 mg/kg, single 20 mg/kg oral dose of cannabidiol solution, mean; for CL/F / Vd/F: cannabidiol; for half-life: t1/2, cannabidiol
Experimental: An open label, randomized, single-dose, two-period, two-way crossover food-effect study was conducted on healthy subjects. […] Twenty-four (24) subjects were enrolled in the study and each were subjected to the fasted and fed treatment arms in separate periods followed by a 7-day wash-out period. For pharmacokinetic analysis, nominal time and default lambda-z selections were used. All below quantifiable limit values were set to zero and all subjects were included in the analysis.
Data from 13 subjects from the fasted treatment and 24 subject from the fed treatment were included in the pharmacokinetic and statistical analyses.

[6] = tested on: Metrazol-induced clonic seizure; assay: Subcutaneous Metrazol (sc Met) seizure test; details: for Sc MET N/F (animals protected/tested): mice; for ED50: Mus musculus, sc
[7] = tested on: minimal muscular or neurological impairment; assay: Minimal motor impairment toxicity test (TOX), rats; format: in vivo; details: Anticonvulsant Screening
[8] = dose 30, 1.0 h, ethanol:polyethoxylated castor oil:PBS
[9] = dose 30, 1.0 h, methylcellulose
[10] = dose 30, 2.0 h, ethanol:polyethoxylated castor oil:PBS
[11] = dose 30, 2.0 h, methylcellulose
[12] = dose 30, 4.0 h, ethanol:polyethoxylated castor oil:PBS
[13] = dose 30, 4.0 h, methylcellulose
[14] = dose 100, 1.0 h, ethanol:polyethoxylated castor oil:PBS
[15] = dose 100, 1.0 h, methylcellulose
[16] = dose 100, 2.0 h, ethanol:polyethoxylated castor oil:PBS
[17] = dose 100, 2.0 h, methylcellulose
[18] = dose 100, 4.0 h, ethanol:polyethoxylated castor oil:PBS
[19] = dose 100, 4.0 h, methylcellulose

C=C(C)[C@@H]1CCC(C)=C[C@H]1c1c(O)cc(CCCCC)cc1O [cannabidiol, (−)-trans-2-p-mentha-1,8-dien-3-yl-5-pentylresorcinol]
MES N/F (animals protected/tested) [1, 8]: 0/4
MES N/F (animals protected/tested) [1, 9]: 0/4
MES N/F (animals protected/tested) [1, 10]: 0/4
MES N/F (animals protected/tested) [1, 11]: 0/4
MES N/F (animals protected/tested) [1, 12]: 0/4
MES N/F (animals protected/tested) [1, 13]: 0/4
MES N/F (animals protected/tested) [1, 14]: 1/4
MES N/F (animals protected/tested) [1, 15]: 0/4
MES N/F (animals protected/tested) [1, 16]: 0/4
MES N/F (animals protected/tested) [1, 17]: 0/4
MES N/F (animals protected/tested) [1, 18]: 0/4
MES N/F (animals protected/tested) [1, 19]: 0/4
effect on antitumor activity of temozolomide (in words) (U251 cells; 15 mg/kg cannabidiol with temozolomide 1.5 mg/kg): enhanced the antitumor activity of temozolomide
survival (in words) (U251 cells; vehicle outlier included): did not increase survival
effect on oxaliplatin-induced mechanical sensitivity (in words) [2]: attenuated
TD50 at 2 h ([3]; CF1, mouse, TD50, Example 12, 1:1:18 ethanol:polyethoxylated castor oil:PBS solvent): 262 mg/kg
TD50 at 0.5 hours ([3]; CF1, mouse, TD50, Example 12, methylcellulose solvent, 0.5 hours post administration): > 500 mg/kg
TD50 at 2 h ([3]; mouse, TD50, Example 13, 1:1:18 ethanol:polyethoxlated castor oil:PBS solvent): 267 mg/kg
TD50 at 2 h ([3]; mouse, TD50, Example 13, methylcellulose solvent): > 500 mg/kg
subjects with somnolence related to the CBD [4]: 7.7%
subjects with weight increase related to the CBD [4]: 7.7%
alleviating chemotherapy-induced neuropathic pain (in words) ([5]; Example 7, IP, Day 21): most effective level of alleviating chemotherapy-induced neuropathic pain
minimal effective dose ([5]; IP): 1.25 mg/kg
effect on paclitaxel-induced mechanical sensitivity (in words) ([5]; pretreatment 15 minutes prior to each paclitaxel injection, IP): significantly attenuated
CL/F (clinical; fasted): 1140 mL/min/kg
CL/F (clinical; fed): 36.2 mL/min/kg
Vd/F (clinical; fasted): 2680 L/kg
Vd/F (clinical; fed): 133 L/kg
half-life (clinical; fasted): 27.9 h
half-life (clinical; fed): 42.3 h
Sc MET N/F (animals protected/tested) ([6]; ED50 Biological Response (Table 57), 150 mg/kg, 2 h, methylcellulose): 1/8
Sc MET N/F (animals protected/tested) ([6]; ED50 Biological Response (Table 57), 300 mg/kg, 2 h, methylcellulose): 5/8
Sc MET N/F (animals protected/tested) ([6]; ED50 Biological Response (Table 57), 360 mg/kg, 2 h, methylcellulose): 7/8
Sc MET N/F (animals protected/tested) ([6]; ED50 Biological Response (Table 59), 120 mg/kg, 2 h, ethanol:polyethoxylated castor oil:PBS): 0/8
Sc MET N/F (animals protected/tested) ([6]; ED50 Biological Response (Table 59), 160 mg/kg, 2 h, ethanol:polyethoxylated castor oil:PBS): 2/8
Sc MET N/F (animals protected/tested) ([6]; ED50 Biological Response (Table 59), 220 mg/kg, 2 h, ethanol:polyethoxylated castor oil:PBS): 5/8
Sc MET N/F (animals protected/tested) ([6]; ED50 Biological Response (Table 59), 260 mg/kg, 2 h, ethanol:polyethoxylated castor oil:PBS): 7/8
ED50 ([6]; 1:1:18 ethanol:polyethoxlated castor oil:PBS solvent): 199 mg/kg
ED50 ([6]; methylcellulose solvent): 241 mg/kg
Sc MET N/F (animals protected/tested) ([6]; Tables 57/58, 200 mg/kg, 2 h, methylcellulose): 3/8
Sc MET N/F (animals protected/tested) ([6]; Time to Peak Effect (Table 58), 200 mg/kg, 0.25 h, methylcellulose): 0/4
Sc MET N/F (animals protected/tested) ([6]; Time to Peak Effect (Table 58), 200 mg/kg, 0.5 h, methylcellulose): 0/4
Sc MET N/F (animals protected/tested) ([6]; Time to Peak Effect (Table 58), 200 mg/kg, 1 h, methylcellulose): 2/8
TOX N/F (minimal motor impairment) [7, 8]: 0/4
TOX N/F (minimal motor impairment) [7, 9]: 0/4
TOX N/F (minimal motor impairment) [7, 10]: 0/4
TOX N/F (minimal motor impairment) [7, 11]: 0/4
TOX N/F (minimal motor impairment) [7, 12]: 0/4
TOX N/F (minimal motor impairment) [7, 13]: 0/4
TOX N/F (minimal motor impairment) [7, 14]: 0/4
TOX N/F (minimal motor impairment) [7, 15]: 0/4
TOX N/F (minimal motor impairment) [7, 16]: 0/4
TOX N/F (minimal motor impairment) [7, 17]: 0/4
TOX N/F (minimal motor impairment) [7, 18]: 0/4
TOX N/F (minimal motor impairment) [7, 19]: 0/4

— patent publication US11911361B2, “Stable cannabinoid formulations” (priority 2014, dated 2024)
